Results from patent publication US10765672B2, “Pharmaceutical formulations of a HIF hydroxylase inhibitor” (FibroGen, Inc., priority 2013, dated 2020).

Test: Solid state sunlight exposure of Compound A powder, reverse phase HPLC
Type: physicochemical
Conditions: for purity value as measured by reverse phase HPLC: Compound A dry powder
Description: Approximately 500 mg of Compound A dry powder was placed in a 1-gallon polyethylene bag and exposed to sunlight for two months consecutively during daylight hours. The powder was in a very thin layer and the bag was shaken often to ensure that all the powder and not just the top layer was exposed to sunlight. A control sample of Compound A powder was stored in an amber vial in the dark for the same amount of time for comparison purposes. […] The light-exposed sample and the control sample were analyzed by HPLC to evaluate differences in their composition. The HPLC method used a reverse phase Zorbax Eclipse XDB-C8, 3.5 μm, 4.6×150 mm column. The mobile phase was comprised of water and acetonitrile mixtures acidified with trifluoroacetic acid. Gradient elution with increasing acetonitrile provided chromatograms of the control sample of Compound A (FIG. 1, before light exposure) and the light-exposed sample of Compound A (FIG. 1, after light exposure) with UV detection at 230 nm.
After exposure to sunlight, a new peak appeared in the chromatogram evidencing a new molecule.

Cc1nc(C(=O)NCC(=O)O)c(O)c2ccc(Oc3ccccc3)cc12 [Compound A, [(4-hydroxy-1-methyl-7-phenoxy-isoquinoline-3-carbonyl)-amino]-acetic acid]
purity value as measured by reverse phase HPLC (after exposure to sunlight for two months): 98.4% | purity value as measured by reverse phase HPLC (before exposure to sunlight): 99.1% | visual inspection (colour) (control sample stored in amber vial in the dark, two months): yellow | visual inspection (colour) (light-exposed sample, two months sunlight): off-white
